According to patent US11767313B2, “Compounds as nuclear transport modulators and uses thereof” (XWPHARMA LTD., priority 2018, dated 2023):
Read-outs that look alike come from different tables or passages of the source.

How the values were obtained:
[1] = tested on: A549; assay: CellTiter-Glo cell proliferation assay, A549; type: cell-based; settings: Homo sapiens, 72 hours, Table 1, read-out: Growth inhibition (IC50)
Protocol: (§1) CellTiter-Glo® Luminescent Cell Viability assay (with Promega CellTiter 96® Luminescent CellTiter-Glo® kit) was used to study the proliferation inhibition by test compounds. Compounds were resuspended in DMSO to make a 25 mM stock suspension. Cells of cancer cell lines or normal tissues were seeded in 96-well plates at 1,500 to 5,000 cells/well overnight. Compounds were 2- or 3-fold diluted serially to obtain 10 concentrations. Then, the drugs were added to the cell wells by Bravo (Agilent) and incubated for 72 hours. The cells were lysed by adding CellTiter-Glo® Reagent (per manufacturer's instructions) and subsequently, the luminescence was read using EnVision® (PerkinElmer).
(§2) The percent of growth was calculated as follows. DMSO-treated cells were employed as vehicle control (High control, HC) and culture medium alone was employed as background (Low control, EC). % growth=100×(Lum sample−Lum EC)/(Lum HC−Lum EC). The ICso was calculated by concentration-response curve fitting using Graphpad Prism.
(§3) Hematological cancer cell lines tested included OCI-AML3, MV-4-11, KG-1, Kasumi-1, K562, THP-1; solid cancer cell lines tested included U87MG, U251, T98G, LN229, A172, H460, H2009, A549; normal cell lines tested included HCN2 and 3T3-L1. […] However, they were not toxic to in vitro cultured normal cells.

[2] = tested on: H2009; assay: CellTiter-Glo cell proliferation assay, H2009; type: cell-based; settings: Homo sapiens, NCI-H2009, 72 hours, Table 1, read-out: Growth inhibition (IC50)
Protocol: as §1, §2, §3

[3] = tested on: Kasumi-1; assay: CellTiter-Glo cell proliferation assay, Kasumi-1; type: cell-based; settings: Homo sapiens, 72 hours, Table 1, read-out: Growth inhibition (IC50)
Protocol: as §1, §2, §3

[4] = tested on: THP-1; assay: CellTiter-Glo cell proliferation assay, THP-1; type: cell-based; settings: Homo sapiens, 72 hours, Table 1, read-out: Growth inhibition (IC50)
Protocol: as §1, §2, §3

[5] = tested on: MV411; assay: CellTiter-Glo cell proliferation assay, MV411; type: cell-based; settings: Homo sapiens, MV4-11, 72 hours, Table 1, read-out: Growth inhibition (IC50)
Protocol: as §1, §2, §3

[6] = Pharmacokinetic profile summary; type: in vivo, mice or rats; settings: for AUC / Cmax: po
Protocol: Blood was collected from mice (n=3, or 5) to contribute to the total of 10 time points (pre-dose, 5 min, 15 min, 30 min, 1 hour, 2 hours, 4 hours, 8 hours, 12 hours and 24 hours). At the designated time points, animals were anaesthetized under isoflurane, and approximately 110 μL of blood per time point was collected via retro-orbital puncture into pre-cooled K2EDTA tubes. Blood samples were put on wet ice and centrifuged (2000 g, 5 min at 4° C.) to obtain plasma within 30 minutes of sample collection. All samples were stored frozen at approximately −80° C. until analysis. Prior to analysis, samples were mixed with internal standard in acetonitrile, vortexed, centrifuged, and supernatant was injected for analysis. Concentration of compounds in plasma was determined using LC-MS-MS instrumentation (API 4000, Triple Quadrupole LC/MS/MS Mass Spectrometer). AUC values were calculated using Phoenix Win Nonlin 6.3 software package, PO-Noncompartmental model 200 (extravascular input).
Following collection, brain tissue was rinsed with cold saline, dried on filter paper, weighed and snap-frozen by placing on dry ice. All samples were stored frozen at approximately −80° C. until analysis. At the time of analysis, brain tissue was homogenized (homogenizing solution PBS, pH 7.4), mixed with internal standard in acetonitrile, vortexed, centrifuged, and supernatant was injected for analysis. Concentration of compounds in plasma was determined using LC-MS-MS instrumentation (API 4000, Triple Quadrupole LC/MS/MS Mass Spectrometer). Plasma samples were treated with the identical method (except homogenization step) and the concentration of compound in each matrix was calculated based on generated standard curves.
The pharmacokinetic profile of test compounds in mice or rats was determined from several test compounds was determined using the methods described in Example 22.

[7] = biological target: XPO1 (Homo sapiens, UniProt O14980); assay: REV-GFP translocation assay in U2OS cells; type: cell-based; design: endogenous in cells; host or cells: U2OS cells stably expressing REV-GFP (clones from HD Biosciences)
Protocol: LTD in China, and cells were cultured with growth medium. […] The highest Leptomycin B (LMB) concentration was set to 50 nM and serially diluted as the positive control, while the highest concentrations of other compounds were set to 10 μM. The cells treated with various drugs or DMSO, were incubated at 37° C. and 5% CO2 for 1 h. Then, cells were fixed with 4% formaldehyde for 15 min at room temperature. The cells were washed and stained with 100 μL Hoechst 33342 working solution for 10 min at room temperature in dark, after which the cell fluorescence was imaged with the High-Content Imaging System, ImageXpress® (Molecular Devices) using the 20× objective. The filters were set for Hoechst (350/461 nm) and GFP/FITC (488/509 nm) (wavelength for excitation and emission maxima). The % effect of REV nuclear translocation was calculated with the following formula: % effect=([…]- signals from testing compounds; ILMB-signals of 50 nM LMB group; ICTRL-signals of vehicle control group.

[8] = tested on: KG1; assay: CellTiter-Glo cell proliferation assay, KG1; type: cell-based; settings: Homo sapiens, KG-1, 72 hours, Table 1, read-out: Growth inhibition (IC50)
Protocol: as §1, §2, §3

[9] = tested on: K562; assay: CellTiter-Glo cell proliferation assay, K562; type: cell-based; settings: Homo sapiens, 72 hours, Table 1, read-out: Growth inhibition (IC50)
Protocol: as §1, §2, §3

[10] = tested on: U87MG; assay: CellTiter-Glo cell proliferation assay, U87MG; type: cell-based, human; settings: Homo sapiens, U-87 MG
Protocol: as §1, §2, §3

[11] = tested on: OCI-AML3; assay: CellTiter-Glo cell proliferation assay, OCI-AML3; type: cell-based; settings: Homo sapiens, OCI-AML-3, 72 hours, Table 1, read-out: Growth inhibition (IC50)
Protocol: as §1, §2, §3

[12] = tested on: H460; assay: CellTiter-Glo cell proliferation assay, H460; type: cell-based; settings: Homo sapiens, NCI-H460, 72 hours, Table 1, read-out: Growth inhibition (IC50)
Protocol: as §1, §2, §3

[13] = in vivo; settings: female, BALB/c Nude, mouse
[14] = biological target: T1, CRM1 (Homo sapiens, UniProt O14980); assay: PD effects by IHC in U87MG-luc orthotopic model, CRM1; type: in vivo, mice; settings: orally three times a week for 2 weeks; vs vehicle control
T1 construct: from tissue; host or cells: U87MG-luc orthotopic xenograft tumours in mouse brain
Protocol: (§4) Based on the bioluminescent signal of tumor, mice were randomly assigned to respective groups using a computer-generated randomization procedure, which included vehicle and compound III-treated groups, respectively, with 5 animals per group. Compound III (20 mg/kg) was given orally 3 times a week (on Day 1, 3, 5) for 2 weeks. Animals for IHC study were euthanized at 6 hours after the last dose and perfused with normal saline followed by fixation with 4% paraformaldehyde. Entire brains containing tumors were collected and kept in fixative for 24 hours before proceeding for paraffin block.

[15] = tested on: A-172; assay: CellTiter-Glo cell viability assay, A-172; type: cell-based; settings: Homo sapiens, Table 6
Protocol: as §1, §2
The inhibition activity of test compounds was determined in A-172, U87MG and 3T3-L1 cell lines.
A CellTiter-Glo® luminescent cell viability assay was performed s described in Example 1.

[16] = tested on: C8-B4; assay: Cytotoxicity, cell proliferation assay, C8-B4; type: cell-based; settings: Table 8
Protocol: as §1, §2
(§5) The cytotoxicity of test compounds in brain (HCN2), colon cancer (HCT116) and normal colon cell (C8-B4) lines was determined using the cell proliferation assay as described in Example 19.

[17] = tested on: U251; assay: CellTiter-Glo cell proliferation assay, U251; type: cell-based; settings: Homo sapiens, U-251; Table 11; read-out: Absolute IC50 (μM) U251
Protocol: as §1, §2, §3

[18] = tested on: HCN2; assay: CellTiter-Glo cell proliferation assay, HCN2 (normal brain); type: cell-based; settings: for IC50: read-out: HCN2 IC50
Protocol: as §1, §2, §3

[19] = tested on: HCT116; assay: Cytotoxicity, cell proliferation assay, HCT116 colon cancer; type: cell-based; settings: Table 8
Protocol: as §1, §2, §5

[20] = tested on: T98G; assay: CellTiter-Glo cell proliferation assay, T98G; type: cell-based; settings: Homo sapiens, T98G; Table 11; read-out: Absolute IC50 (μM) T98G
Protocol: as §1, §2, §3

[21] = tested on: U87MG cells; assay: Capase-Glo 317 apoptosis assay; type: cell-based; settings: Homo sapiens, U-87 MG, 72 hours
Protocol: A Capase-Glo® 317 assay was used to determine the apoptosis activity of test compounds in U87MG cells.
Compounds were dissolved in 25 mM DMSO stock solution and serially diluted. DMSO was used as the vehicle control (high control, HC) and culture medium was used as the background (low control LC). The test compounds were applied to plates and spun at 25° C. at 1,000 RPM for 1 min and shaken on a plate shaker for 2 min. Samples (80 nL) of the compounds from the plates were transferred to 384-well cell culture plates using a liquid handler.
Cells were harvested and the cell numbers counted. 40 μL of the cell suspension with the adjusted density was added to 384-well cell culture pates. The final cell density is 1,000 cells/well. Cell culture medium only was used in the low control (LC) samples. The plates were covered with a lid and placed in a 5% CO2 incur at 37° C. for 72 hours.
After incubating for 72 hours, the plates were removed from the incubator and equilibrated at 25° C. for 15 minutes. CellTiter Glo® regen was incubated at 37° C. before the experiments. 40 μL of Capase-Glo® 317 was added into each well to be detected at a 1:1 ratio to culture medium. The plates were then placed at 25° C. for 30 min and read using an EnSpire® Plate Reader.
The % activity remaining was determined using the following formula: % Remaining Activity=[…]×(Lumsample−LumLC)/(LumHC−LUM LC), where HC is obtained from cells treated with 0.1% DMSO only, LC is obtained from culture medium only.

[22] = tested on: 3T3; assay: Cytotoxicity, cell proliferation assay, 3T3; type: cell-based; settings: Mus musculus, NIH3T3; Table 9
Protocol: as §1, §2
The cytotoxicity of test compounds was also determined in glioblastoma (U87MG)), brain (HCN2) and 3T3 cell lines was determined using the cell proliferation assay as described in Example 19.

[23] = 25 mg/kg p.o., qod x 3 per week, two weeks; BALB/c Nude mice
[24] = tested on: 3T3-L1; assay: CellTiter-Glo cell proliferation assay, 3T3-L1 (normal); type: cell-based; settings: Mus musculus, 3T3-L1; Table 6; read-out: 3T3-L1 IC50
Protocol: as §1, §2, §3

[25] = tested on: Ki67; assay: PD effects by IHC in U87MG-luc orthotopic model, Ki67; type: in vivo, mice; settings: orally three times a week for 2 weeks; vs vehicle control
Protocol: as §4

[26] = tested on: LN-229; assay: CellTiter-Glo cell proliferation assay, LN-229; type: cell-based; settings: Homo sapiens, LN-229; Table 11; read-out: Absolute IC50 (μM) LN-229
Protocol: as §1, §2, §3

[27] = 10 mg/kg, plasma, 10 mpk, read-out: Cmax (ng/ml) plasma/10 mpk

Sequence of XPO1 (O14980 whole entry): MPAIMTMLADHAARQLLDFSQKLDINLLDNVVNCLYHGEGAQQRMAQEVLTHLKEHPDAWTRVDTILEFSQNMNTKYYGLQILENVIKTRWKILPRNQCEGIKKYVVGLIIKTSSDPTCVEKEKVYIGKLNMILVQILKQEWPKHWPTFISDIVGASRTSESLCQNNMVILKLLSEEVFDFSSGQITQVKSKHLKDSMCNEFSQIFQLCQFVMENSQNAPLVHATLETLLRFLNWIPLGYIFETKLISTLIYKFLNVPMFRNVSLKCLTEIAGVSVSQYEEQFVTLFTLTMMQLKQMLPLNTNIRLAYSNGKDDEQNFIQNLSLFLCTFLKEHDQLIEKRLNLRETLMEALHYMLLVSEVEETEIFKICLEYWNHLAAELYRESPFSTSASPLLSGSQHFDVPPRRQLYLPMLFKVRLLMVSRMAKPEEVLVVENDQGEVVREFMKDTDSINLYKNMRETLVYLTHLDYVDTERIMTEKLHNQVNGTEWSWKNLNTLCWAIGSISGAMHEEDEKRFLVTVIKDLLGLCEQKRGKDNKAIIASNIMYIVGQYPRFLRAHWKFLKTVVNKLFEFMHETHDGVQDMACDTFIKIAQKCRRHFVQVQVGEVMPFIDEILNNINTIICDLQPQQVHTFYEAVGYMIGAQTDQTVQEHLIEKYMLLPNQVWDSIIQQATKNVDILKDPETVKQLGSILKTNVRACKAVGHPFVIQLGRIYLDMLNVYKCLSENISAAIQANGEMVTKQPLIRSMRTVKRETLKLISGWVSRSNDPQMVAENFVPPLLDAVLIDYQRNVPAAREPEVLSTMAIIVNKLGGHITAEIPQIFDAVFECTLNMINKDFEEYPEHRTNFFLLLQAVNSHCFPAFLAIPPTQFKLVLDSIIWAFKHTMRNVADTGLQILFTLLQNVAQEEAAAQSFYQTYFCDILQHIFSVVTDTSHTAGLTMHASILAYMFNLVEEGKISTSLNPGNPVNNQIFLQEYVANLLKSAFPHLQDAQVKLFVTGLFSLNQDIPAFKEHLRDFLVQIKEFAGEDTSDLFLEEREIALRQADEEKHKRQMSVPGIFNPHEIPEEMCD
T1 sequence (O14980 whole entry): as above

NC(=O)/C(=C/n1cnc(-c2cc(C(F)(F)F)cc(S(F)(F)(F)(F)F)c2)n1)c1cncnc1 [Compound IV, (E)-3-(3-(3-(Pentafluorosulfaneyl)-5-(trifluoromethyl)phenyl)-1H-1,2,4-triazol-1-yl)-2-(pyrimidin-5-yl)acrylamide]
IC50 [1]: 1860 nM | IC50 [2]: 453 nM | IC50 [3]: 124 nM | IC50 [4]: 838 nM | IC50 [5]: 110 nM | Kp ([6]; brain/plasma, 5 mpk/AUC Ratio, read-out: B/P ratio): 0.29 | bioavailability ([6]; plasma, oral, mice or rats): 27% | AUC ([6]; plasma, 10 mg/kg, 10 mpk): 1060 ng·h/mL | half-life ([6]; plasma, mice or rats): 2.9 h | Cmax ([6]; 5 mg/kg, 5 mpk, first number of Plasma/brain pair, read-out: Cmax/(ng/mL) Plasma): 276 ng/mL | Cmax ([6]; 5 mg/kg, 5 mpk, second number of Plasma/brain pair, read-out: Cmax/(ng/mL) brain): 68.5 ng/mL | Cmax [6, 27]: 312 ng/mL | EC50 ([7]; REV-EGFP U2OS cells, 1 h, Table 2, read-out: Rev-GFP/EC50): 0.0148 µM | IC50 ([7]; Table 10, first (or only) value of the cell): 14.8 nM | EC50 ([7]; Table 13, read-out: Rev-GFP assay/μM): 0.015 µM | IC50 [8]: 698 nM | IC50 [9]: 1750 nM | IC50 ([10]; 72 h, U87MG, 72 hours, Table 1, read-out: Growth inhibition (IC50)): 194 nM | IC50 [11]: 341 nM | IC50 [12]: 306 nM

O=C(/C=C\n1cnc(-c2cc(C(F)(F)F)cc(C(F)(F)F)c2)n1)NNc1cnccn1 [KPT-330, (Z)-3-(3-(3,5-bis(trifluoromethyl)phenyl)-1H-1,2,4-triazol-1-yl)-N′-(pyrazin-2-yl)acrylohydrazide, reference compound]
MTD [13]: 15 mg/kg | expression of CRM1 in tumors (IHC) [14]: significantly decreased | IC50 [15]: 224 nM | IC50 ([16]; C8-B4): 1270 nM | C8-B4 Max % inh [16]: 100% | IC50 [17]: 1 µM | HCN2 Max % inh ([18]; Table 8): 99% | IC50 ([18]; Table 8): 30700 nM | IC50 ([18]; Table 9): 34200 nM | AUC ([6]; plasma, 10 mg/kg, 10 mpk): 8420 ng·h/mL | half-life ([6]; plasma, mice or rats): 1.7 h | Cmax [6, 27]: 2520 ng/mL | IC50 ([19]; Homo sapiens, HCT-116): 2130 nM | HCT116 Max % inh [19]: 98% | IC50 [20]: 0.8 µM | EC50 [21]: 12600 nM | Emax ([21]; U87MG): 398% | IC50 ([10]; Table 6, read-out: U87MG IC50): 129 nM | IC50 ([10]; Table 9, first value column, read-out: U87MG IC50): 520 nM | IC50 ([10]; Table 9, second value column, read-out: U87MG IC50): 710 nM | IC50 [22]: > 50000 nM | survival in MTD study [23]: all mice were dead, or anaesthetized for the weight lost up to 20% | IC50 [24]: > 50000 nM | expression of Ki67 in tumors (IHC) [25]: significantly decreased | IC50 [26]: 0.3 µM
